Patent US20240344028A1, “Serum-free media for producing adipocytes for animal consumption” (Mosa Meat B.V., priority 2021, published 2024)

Key:
[1] = tested on: Adipogenic progenitor cells; test: 2D adipogenic differentiation with DMAD components removed or at changed concentration; assay type: cell-based, bovine; conditions: for effect of removing the component from DMAD on percentage of positive cells and total lipid area: single component removed from DMAD
Protocol: (§1) At 90% confluence, proliferated MSCs were trypsinized and seeded in a 96-well collagen coated cell culture plate at 30,000 cells/cm^2 in SF-PM. After 24 hours, adipogenesis was induced by changing SF-PM to DMAD (the serum-free differentiation medium as depicted in Example 1), which was maintained on the cells for a period of 12 days with media changes every 3-4 days. As a control differentiation medium (ctrl), DMEM/F12 with 3% FBS was supplemented with 4 conventional adipogenic inducers (IBMX (Sigma Aldrich-15879; 0.5 mM), dexamethasone (Sigma Aldrich-D4902; 10 μM), rosiglitazone (Sigma Aldrich-R2408; 5 μM) and insulin (Peprotech-10-365; 10 μM)). All 4 inducers were used for the first 3 days of culture and only insulin and rosiglitazone were used for the remaining 9 days.
(§2) Cells were fixed on days 6 and 12 with 4% PFA for 20 minutes at room temperature and washed twice with PBS. Cells were then stained with Hoechst (ThermoFisher 493/503, 1:2000) and BODIPY (Sigma Aldrich 345880, 1:1000) in PBS for 30 minutes. Adipogenic differentiation was quantified using the ImageXPress Pico High Content Analyser (HCA; Molecular devices). The parameters measured were total area of lipid, lipid droplet average area and percentage of positive cells. For the percentage of positive cells, the HCA software assigned BODIPY immunoreactivity to the nearest nuclei, (i.e. a positive cell) and the number of BODIPY positive nuclei was then divided by the total number of nuclei.
Adipogenic progenitor cells were cultured as described in Example 2, with the exception that single components (FGF, EGF, insulin, vitamin C, hydrocortisone, BMP4, lipid concentrate, HEPES, putrescine, progesterone) of the DMAD medium (the serum-free differentiation medium as depicted in Example 1) were removed. In addition, different concentrations (50% and 200%) were tested for EGF, FGF, vitamin C, hydrocortisone and progesterone.

MSC cells = test: PPARγ agonist testing in 2D adipogenic differentiation; assay type: cell-based, bovine; conditions: 12 days, indomethacin 50 μM, others 10 μM
Protocol: as §1, §2
MSC cells were cultured as described in Example 2. With the exception that indomethacin (50 μM; 17378 from Sigma Aldrich) was replaced with one of the following three PPARΥ agonists to test their efficiency: magnolol (M3445 from Sigma Aldrich) at 10 μM; honokiol (H4914 from Sigma Aldrich) at 10 μM and amorfrutin B (SMB00532 from Sigma Aldrich) at 10 μM.

Row | Molecule | effect of removing the component from DMAD on percentage of positive cells and total lipid area [1] | adipogenic differentiation in DMAD with this PPARγ agonist (MSC cells) | also measured
1 | O=S(=O)(O)CCN1CCN(CCO)CC1 [HEPES, 4-(2-hydroxyethyl)-1-piperazineethanesulfonic acid] | did not have significant effects | – | –
2 | COc1cc(CCc2ccccc2)c(C(=O)O)c(O)c1C/C=C(\C)CCC=C(C)C [amorfrutin B] | – | able to undergo adipogenic differentiation | –
3 | C=CCc1ccc(O)c(-c2ccc(O)c(CC=C)c2)c1 [honokiol] | – | able to undergo adipogenic differentiation | –
4 | C[C@]12CCC(=O)C=C1CC[C@@H]1[C@@H]2[C@@H](O)C[C@@]2(C)[C@H]1CC[C@]2(O)C(=O)CO [hydrocortisone] | significantly decreased differentiation | – | –
5 | COc1ccc2c(c1)c(CC(=O)O)c(C)n2C(=O)c1ccc(Cl)cc1 [indomethacin] | – | able to undergo adipogenic differentiation | level of differentiation, ranking among the PPARγ agonists (MSC cells): highest level of differentiation
6 | C=CCc1ccc(O)c(-c2cc(CC=C)ccc2O)c1 [magnolol] | – | able to undergo adipogenic differentiation | level of differentiation, ranking among the PPARγ agonists (MSC cells): highest level of differentiation
7 | CC(=O)[C@H]1CC[C@H]2[C@@H]3CCC4=CC(=O)CC[C@]4(C)[C@H]3CC[C@]12C [progesterone] | did not have significant effects | – | –
8 | NCCCCN [putrescine, butane-1,4-diamine] | did not have significant effects | – | –
9 | EGF: recombinant human EGF, AF-100-15 from Peprotech (NSDSECPLSHDGYCLHDGVCMYIEALDKYACNCVVGYIGERCQYRDLKWWELR; Epidermal growth factor; UniProt P01133 971-1023, looked up) | significantly decreased differentiation | – | effect on adipogenesis (total lipid area) of decreasing the component's concentration in DMAD ([1]; 50% of the standard concentration vs 100% control): significantly decreased adipogenesis
10 | FGF: recombinant human FGF2, 100-18B from Peprotech | did not have significant effects | – | –
11 | insulin: recombinant human insulin, 10-365 from Peprotech | significantly decreased differentiation | – | –
